Measured values from ChEMBL document CHEMBL5393452, “Mettl3 inhibitory compounds” (2020).
The source made the active and inactive calls. The calls are words filed in the database; no cut-off is given here.

Assays:
[1] = molecular target: N6-adenosine-methyltransferase catalytic subunit (Homo sapiens, UniProt Q86U44); assay: Inhibition of METTL3 in human MOLM-13 cells assessed as reduction in m6A methylation level at 0.1 to 50 uM measured by NanoDrop spectrophotomery analysis; type: cell-based; conditions: dose 0.1-50 µM
Sequence of N6-adenosine-methyltransferase catalytic subunit (Q86U44 whole entry): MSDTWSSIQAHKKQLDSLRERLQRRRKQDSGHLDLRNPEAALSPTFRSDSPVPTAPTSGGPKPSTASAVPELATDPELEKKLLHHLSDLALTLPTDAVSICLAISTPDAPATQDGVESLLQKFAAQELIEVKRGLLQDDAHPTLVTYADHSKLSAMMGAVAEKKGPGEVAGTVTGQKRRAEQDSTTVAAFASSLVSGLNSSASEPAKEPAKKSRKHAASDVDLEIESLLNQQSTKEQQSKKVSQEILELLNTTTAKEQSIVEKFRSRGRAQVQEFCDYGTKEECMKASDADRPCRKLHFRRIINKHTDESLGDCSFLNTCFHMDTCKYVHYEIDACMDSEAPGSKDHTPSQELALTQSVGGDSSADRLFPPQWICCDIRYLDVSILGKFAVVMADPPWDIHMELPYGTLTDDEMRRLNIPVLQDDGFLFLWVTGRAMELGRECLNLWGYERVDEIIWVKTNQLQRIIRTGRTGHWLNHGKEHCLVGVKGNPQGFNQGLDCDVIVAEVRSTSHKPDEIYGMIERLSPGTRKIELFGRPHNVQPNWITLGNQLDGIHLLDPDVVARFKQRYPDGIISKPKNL

MOLM-13 [2] = assay: Antiproliferative activity against human MOLM-13 cells incubated for 6 days by CellTiter-Glo assay; type: functional, cell-based; conditions: MOLM-13, 144 h
Caov-3 cell line = assay: Antiproliferative activity against human Caov-3 cells incubated for 120 hrs by CellTiter-Glo assay; type: functional, cell-based; conditions: Caov-3, 120 h
KCL-22 = assay: Antiproliferative activity against IFN-gamma-treated human KCL-22 cells incubated for 6 days by CellTiter-Glo assay; type: functional, cell-based; conditions: KCL-22, 144 h
NOMO-1 = assay: Antiproliferative activity against IFN-gamma-treated human NOMO-1 cells incubated for 6 days by CellTiter-Glo assay; type: functional, cell-based; conditions: NOMO-1, 144 h
THP-1 = assay: Antiproliferative activity against IFN-gamma-treated human THP-1 cells incubated for 7 days by CellTiter-Glo assay; type: functional, cell-based; conditions: THP-1, 168 h
Kasumi 1 = assay: Antiproliferative activity against IFN-gamma-treated human Kasumi 1 cells incubated for 6 days by CellTiter-Glo assay; type: functional, cell-based; conditions: Kasumi 1, 144 h
MOLM-13 [3] = assay: Antiproliferative activity against IFN-gamma-treated human MOLM-13 cells incubated for 7 days by CellTiter-Glo assay; type: functional, cell-based; conditions: MOLM-13, 168 h

Row | SMILES | IC50 (MOLM-13 [2]) | also measured
1 | Cc1ccc2nc(CNC(=O)c3cc(=O)n4ccccc4n3)cn2c1 |  | inhibition [1]: Active
2 | NC(=O)c1cc(-c2cn(Cc3cn4cc(CNCC5CCC5)ccc4n3)nn2)c2cn[nH]c2c1 | 30 µM | 
3 | O=C(NCc1cn2cc(CNCC34CC(C3)C4)ccc2n1)c1cc(=O)n2ccccc2n1 | 1.33 µM | IC50 (Caov-3 cell line): 0.296 µM
4 | CC(C)(C)NCc1ccc2nc(CNC(=O)c3cc(=O)n4ccccc4n3)cn2c1 | 30 µM | 
5 | O=C(c1cc(-c2cn(Cc3cn4cc(CNCC5CCC5)ccc4n3)nn2)c2cn[nH]c2c1)N1CCOCC1 | 30 µM | 
6 | O=C(NCc1cn2cc(CNC3CCC3)ccc2n1)c1cc(=O)n2ccccc2n1 | 30 µM | 
7 | O=C(NCc1cn2cc(CNCC3CC4(CC4)C3)ccc2n1)c1cc(=O)n2ccccc2n1 | 30 µM | 
8 | N#CCC(NCC1CCC1)c1ccc2nc(CNC(=O)c3cc(=O)n4ccccc4n3)cn2c1 (stereo not given) | 30 µM | 
9 | O=C(NCc1cn2cc(CCNCc3ccccc3)ccc2n1)c1cc(=O)n2ccccc2n1 | 30 µM | 
10 | CN(C)C(=O)c1cc(-c2cn(Cc3cn4cc(CNCC5CCC5)ccc4n3)nn2)c2cn[nH]c2c1 | 30 µM | 
11 | O=C(NCc1cn2cc(CNCCC3CC(F)(F)C3)ccc2n1)c1cc(=O)n2ccccc2n1 | 30 µM | 
12 | Oc1cc(-c2cn(Cc3cn4cc(CNCC5(O)CCC5)ccc4n3)nn2)c2cn[nH]c2c1 | 30 µM | 
13 | CN(Cc1ccccc1)Cc1ccc2nc(CNC(=O)c3cc(=O)n4ccccc4n3)cn2c1 | 30 µM | 
14 | O=C(NCc1cn2cc(CNCc3ccccc3)ccc2n1)c1cc(=O)n2ccccc2n1 | 3.59 µM | IC50 (KCL-22): 14 µM; IC50 (NOMO-1): 6.55 µM; IC50 (THP-1): 2.12 µM; IC50 (Kasumi 1): 1.89 µM; IC50 (MOLM-13 [3]): 0.847 µM
15 | O=C(O)c1cc(-c2cn(Cc3cn4cc(CNCC5CCC5)ccc4n3)nn2)c2cn[nH]c2c1 | 30 µM | 
16 | COC(C)(C)CNCc1ccc2nc(CNC(=O)c3cc(=O)n4ccccc4n3)cn2c1 | 30 µM | 
17 | O=C(NCc1cn2cc(CNCCCc3ccccc3)ccc2n1)c1cc(=O)n2ccccc2n1 | 4.64 µM | 
18 | O=C(NCc1cn2cc(CNCCc3ccccc3)ccc2n1)c1cc(=O)n2ccccc2n1 | 3.9 µM | 
19 | CC(C)(O)CNCc1ccc2nc(CNC(=O)c3cc(=O)n4ccccc4n3)cn2c1 | 30 µM | 
